This note sets out measurements from patent publication US20250042894A1, “PROTEIN TYROSINE PHOSPHATASE INHIBITORS AND METHODS OF USE THEREOF” (Calico Life Sciences LLC, priority 2021, published 2025).

The test system of assay [1] is IFNγ-induced STAT1 phosphorylation (pSTAT1) in B16F10 cells. The experiment in a line: B16F10 Phospho-STAT1 HTRF proximal pharmacodynamic (PD) assay. The settings on record: for EC50: B16-F10; for Thiochromane x-fold>potency cellular: pSTAT1 EC50 of chromane comparator over thiochromane. The class given is cell-based, murine. The gist of the method:
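Murine B16F10 melanoma cells dosed 3 h at 37 °C (10-point, 3-fold dilution from 50 μM top dose), then stimulated 10 min with recombinant mouse IFNγ (100 nM final) and stopped with 3.3 μM staurosporine for 1 h. pSTAT1 in lysates detected by HTRF (Eu cryptate/d2 antibodies, 3 h RT, 665 nm emission); EC50 from dose-response curves.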
(In general: In TR-FRET formats the signal depends on donor and acceptor labels being close together.)

Assay [2] deals with T1, His tagged PTPN2 (TC45) protein (Homo sapiens, UniProt P17706).
T1 construct: His; made in house
T1 sequence (P17706 1-387 isoform P17706-2): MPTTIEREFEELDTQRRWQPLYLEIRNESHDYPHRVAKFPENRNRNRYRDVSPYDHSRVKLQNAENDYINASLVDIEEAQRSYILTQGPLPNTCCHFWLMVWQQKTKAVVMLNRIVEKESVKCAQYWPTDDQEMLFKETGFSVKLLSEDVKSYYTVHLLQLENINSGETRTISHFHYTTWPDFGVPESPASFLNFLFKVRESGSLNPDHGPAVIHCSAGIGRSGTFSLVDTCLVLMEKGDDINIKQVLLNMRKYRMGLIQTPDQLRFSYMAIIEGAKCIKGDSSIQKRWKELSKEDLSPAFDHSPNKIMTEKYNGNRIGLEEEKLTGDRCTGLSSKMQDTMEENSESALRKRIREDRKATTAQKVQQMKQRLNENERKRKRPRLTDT
Nature of the assay: Mobility Shift Assay (MSA) for PTPN2 inhibitors. The class given is biochemical. The settings on record: for Thiochromane x-fold>potency biochemical: PTPN2 MSA IC50 of chromane comparator over thiochromane. In short, it runs like this: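 Enzyme (0.5 nM) preincubated 10 min at RT with compound (12-point, 1:3 dilution) in 50 mM HEPES pH 7.5, 10 mM EDTA, 2 mM DTT; OG488-labelled phospho-insulin-receptor peptide substrate (2 μM) then added for 10 min. After quench, dephosphorylation measured by microfluidic mobility shift (ex 488/em 530 nm); IC50 from % inhibition.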

The target in assay [3] is T2, His tagged full-length PTPN1 protein (Homo sapiens, UniProt P18031).
T2 construct: His; made in house
T2 sequence (P18031 1-435): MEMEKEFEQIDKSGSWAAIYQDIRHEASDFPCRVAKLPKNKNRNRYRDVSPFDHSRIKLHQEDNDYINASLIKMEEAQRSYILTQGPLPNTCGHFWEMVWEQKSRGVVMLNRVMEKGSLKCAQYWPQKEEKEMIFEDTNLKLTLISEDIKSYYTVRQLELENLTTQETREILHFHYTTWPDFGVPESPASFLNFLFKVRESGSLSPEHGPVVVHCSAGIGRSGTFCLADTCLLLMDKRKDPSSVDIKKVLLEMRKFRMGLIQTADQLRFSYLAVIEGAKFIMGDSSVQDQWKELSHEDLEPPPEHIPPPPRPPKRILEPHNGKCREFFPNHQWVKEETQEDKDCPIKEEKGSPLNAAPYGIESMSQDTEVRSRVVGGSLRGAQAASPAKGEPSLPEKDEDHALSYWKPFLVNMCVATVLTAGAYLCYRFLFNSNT
Nature of the assay: Mobility Shift Assay (MSA) for PTPN1 inhibitors. The class given is biochemical. The settings on record: enzyme 0.5 nM, substrate 2 μM, 10 minutes preincubation at room temperature. The gist of the method:
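Full-length His-tagged human PTPN1 (0.5 nM) was pre-incubated 10 min at RT with compound (12-point, 1:3) in HEPES pH 7.5 buffer with EGTA, EDTA, Tween-20 and DTT. Fluorescent phospho-insulin-receptor peptide (2 μM) was then added for 10 min. After quench, dephosphorylation was measured by microfluidic mobility shift, and IC50 was taken from % inhibition.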

The mark [4] stands for this setting: Table 2, 3 hours compound, then mouse IFNγ 100 nM 10 minutes, top dose 50 μM, read-out: B16F10 IFNγ Induced pSTAT1 EC50.
The mark [5] stands for this setting: Mus musculus, Table 3, B16F10 cells, IFNγ-induced, thiochromanes (X = S) and chromane comparators (X = O), read-out: pSTAT1 EC50.
The mark [6] stands for this setting: enzyme 0.5 nM, substrate 2 μM, 10 minutes preincubation at room temperature.
[7] abbreviates: Table 3, thiochromanes (X = S) and chromane comparators (X = O).

Read-outs that look alike come from different tables or passages of the source. Some results are limits rather than exact numbers.

A word on the EC50: it is the concentration that produces a half-maximal response. For orientation: IC50 means the point on the concentration scale where inhibition reaches its midpoint. As for `O=C1CN(c2c(O)cc3c(c2F)C[C@H](NCC2C4CCCC42)CS3)S(=O)(=O)N1` (mixture of isomers) [Compound 138, 5-[(3S)-3-({[(1RS,5SR)-bicyclo[3.1.0]hexan-6-yl]methyl}amino)-5-fluoro-7-hydroxy-3,4-dihydro-2H-1-benzothiopyran-6-yl]-1λ^6,2,5-thiadiazolidine-1,1,3-trione], the concentration for a half-maximal effect (EC50) in assay [1] (setting [4]) and in assay [1] (setting [5]) was 1.48 µM throughout. Moreover, in assay [1] (Table 3), the “Thiochromane x-fold>potency cellular” value is recorded as above 33.8. Moreover, the “Thiochromane x-fold>potency biochemical” value in assay [2] (Table 3) was 2.0. Also, the IC50 in assay [2] (setting [6]) and in assay [3] was 0.01 to 0.1 µM in each case.

Consider `CC(C)CN[C@@H]1CSc2cc(O)c(N3CC(=O)NS3(=O)=O)c(F)c2C1` [Compound 113, 5-{(3S)-5-fluoro-7-hydroxy-3-[(2-methylpropyl)amino]-3,4-dihydro-2H-1-benzothiopyran-6-yl}-1λ^6,2,5-thiadiazolidine-1,1,3-trione], for which the EC50 in assay [1] (setting [4]) worked out at 2.03 µM. Also, the IC50 in assay [2] (setting [6]) and in assay [3] was 0.01 to 0.1 µM throughout.

As for `CC(C)CCN[C@@H]1CSc2cc(O)c(N3CC(=O)NS3(=O)=O)c(F)c2C1` [Compound 103, 5-{(3S)-5-fluoro-7-hydroxy-3-[(3-methylbutyl)amino]-3,4-dihydro-2H-1-benzothiopyran-6-yl}-1λ^6,2,5-thiadiazolidine-1,1,3-trione], the EC50 in assay [1] (setting [4]) and in assay [1] (setting [5]) was 0.528 µM throughout. Also, the “Thiochromane x-fold>potency cellular” value in assay [1] (Table 3) is reported as 13.2. In addition, the “Thiochromane x-fold>potency biochemical” value in assay [2] (Table 3) is 11.9. For the same molecule, the IC50 in assay [2] (setting [7]) was 0.001 µM; in assay [2] (setting [6]), below 0.01 µM; in assay [3], below 0.01 µM.

Consider `O=C1CN(c2c(O)cc3c(c2F)C[C@H](NCCCc2ccccc2)CS3)S(=O)(=O)N1` [Compound 136, 5-{(3S)-5-fluoro-7-hydroxy-3-[(3-phenylpropyl)amino]-3,4-dihydro-2H-1-benzothiopyran-6-yl}-1λ^6,2,5-thiadiazolidine-1,1,3-trione], for which the EC50 in assay [1] (setting [4]) and in assay [1] (setting [5]) was 27.6 µM throughout. In addition, the “Thiochromane x-fold>potency cellular” value in assay [1] (Table 3) was above 1.8. Further, the “Thiochromane x-fold>potency biochemical” value in assay [2] (Table 3) came to 0.8. Further, the IC50 in assay [2] (setting [6]) and in assay [3] was 0.01 to 0.1 µM each time.

As to `O=C1CN(c2c(O)cc3c(c2F)C[C@H](NCCCC(F)F)CS3)S(=O)(=O)N1` [Compound 100, 5-{(3S)-3-[(4,4-difluorobutyl)amino]-5-fluoro-7-hydroxy-3,4-dihydro-2H-1-benzothiopyran-6-yl}-1λ^6,2,5-thiadiazolidine-1,1,3-trione], the EC50 in assay [1] (setting [4]) was found to be 0.164 µM. In assay [2] (Table 3), the “Thiochromane x-fold>potency biochemical” value worked out at 3.4. In addition, the IC50 was 0.002 µM in assay [2] (setting [7]), below 0.01 µM in assay [2] (setting [6]) and below 0.01 µM in assay [3].

As for `O=C1CN(c2c(O)cc3c(c2F)C[C@H](NCc2ccccc2)CS3)S(=O)(=O)N1` [Compound 121, 5-[(3S)-3-(benzylamino)-5-fluoro-7-hydroxy-3,4-dihydro-2H-1-benzothiopyran-6-yl]-1λ^6,2,5-thiadiazolidine-1,1,3-trione], in assay [1] (setting [4]), the EC50 is 8.15 µM. The IC50 in assay [2] (setting [6]) and in assay [3] was 0.01 to 0.1 µM in each case.

Turning to `O=C1CN(c2c(O)cc3c(c2F)C[C@H](NCCC2CCOCC2)CS3)S(=O)(=O)N1` [Compound 109, 5-[(3S)-5-fluoro-7-hydroxy-3-{[2-(oxan-4-yl)ethyl]amino}-3,4-dihydro-2H-1-benzothiopyran-6-yl]-1λ^6,2,5-thiadiazolidine-1,1,3-trione], the EC50 in assay [1] (setting [4]) and in assay [1] (setting [5]) was 6.03 µM in each case. For the same molecule, in assay [1] (Table 3), the “Thiochromane x-fold>potency cellular” value is recorded as 5.3. Moreover, in assay [2] (Table 3), the “Thiochromane x-fold>potency biochemical” value was 2.0. For the same molecule, the IC50 in assay [2] (setting [6]) is below 0.01 µM; in assay [3], 0.01 to 0.1 µM.

Consider `CC(CN[C@@H]1CSc2cc(O)c(N3CC(=O)NS3(=O)=O)c(F)c2C1)C1CC1` (stereo partly drawn) [Compound 133, 5-{(3S)-3-[(2-cyclopropylpropyl)amino]-5-fluoro-7-hydroxy-3,4-dihydro-2H-1-benzothiopyran-6-yl}-1λ^6,2,5-thiadiazolidine-1,1,3-trione], for which the EC50 in assay [1] (setting [4]) stood at 0.762 µM. In addition, the IC50 in assay [2] (setting [6]) and in assay [3] was below 0.01 µM in each case.

As for `CC(F)(F)CCCN[C@@H]1CSc2cc(O)c(N3CC(=O)NS3(=O)=O)c(F)c2C1` [Compound 129, 5-{(3S)-3-[(4,4-difluoropentyl)amino]-5-fluoro-7-hydroxy-3,4-dihydro-2H-1-benzothiopyran-6-yl}-1λ^6,2,5-thiadiazolidine-1,1,3-trione], the EC50 in assay [1] (setting [4]) came to 0.589 µM. Besides, the IC50 in assay [2] (setting [6]) and in assay [3] was below 0.01 µM each time.
